Data published in ChEMBL document CHEMBL5360578, “Design, synthesis and evaluation of novel pyrrole-hydroxybutenolide hybrids as promising antiplasmodial and anti-inflammatory agents” (Eur J Med Chem, 2023).
Calls of active or inactive are those of the source. The calls are words filed in the database; no cut-off is given here.

How the values were obtained:
[1] = test system: Plasmodium falciparum; test: Antimalarial activity against asynchronous chloroquine-sensitive Plasmodium falciparum 3D7 assessed as parasite growth inhibition infected in erythrocytes incubated for 72 hrs by SYBR green dye based assay; type: functional, organism-based; conditions: 3D7, 72 h
[2] = test system: THP-1; test: Cytotoxicity against LPS-stimulated human THP-1 cells assessed as cell viability at 10 uM incubated for 12 hrs followed by LPS treatment measured after 4 hrs by PI staining based flow cytometry; type: functional; conditions: time 16.0 hrs
[3] = test system: HEK-293T; test: Antiinflammatory activity against HEK293T cells assessed as fold increase in TNFalpha-induced NF-kappaB activity at 10 uM incubated for 1 hr followed by TNFalpha treatment for 5 hrs by luciferase based assay (reference value: 17.1); type: functional, Homo sapiens
[4] = test system: THP-1; test: Antiinflammatory activity against human THP-1 cells assessed as inhibition of LPS-induced TNFalpha level at 10 uM incubated for 12 to 14 hrs followed by compound replenishment for 1 hr and subsequent LPS treatment for 4 hrs by ELISA assay (reference value: 93.43 %); type: functional; set-up: scale not given: the % may be the effect or the level left; conditions: time 17-19 hrs
[5] = test system: HEK-293T; test: Antiinflammatory activity against HEK293T cells assessed as fold increase in TNFalpha-induced NF-kappaB activity at 1 uM incubated for 1 hr followed by TNFalpha treatment for 5 hrs by luciferase based assay (reference value: 17.1); type: functional, Homo sapiens; conditions: time 6 hrs
[6] = Cytotoxicity against African green monkey Vero cells incubated for 3 days by fluorescence based assay; type: toxicity, cell-based; conditions: chlorocebus sabaeus, time 3 day
[7] = test system: Plasmodium falciparum; test: Antimalarial activity against asynchronous chloroquine-resistant Plasmodium falciparum K1 assessed as parasite growth inhibition infected in erythrocytes incubated for 72 hrs by SYBR green dye based assay; type: functional, organism-based; conditions: K1, 72 h
[8] = MRT in fasted Swiss mouse at 50 mg/kg, po measured upto 48 hrs by LC-MS/MS analysis; type: ADME, organism-based; conditions: in vivo
[9] = test system: Mus musculus; test: Antiinflammatory activity in Swiss albino mouse assessed as inhibition of carrageenan-induced paw edema at 100 mg/kg,po pretreated for 1 hr followed by carrageenan administration measured after 4 hrs relative to control; type: functional; conditions: time 5 hrs
[10] = Tmax in fasted Swiss mouse at 50 mg/kg, po measured upto 48 hrs by LC-MS/MS analysis; type: ADME, organism-based; conditions: in vivo
[11] = Clearance in fasted Swiss mouse at 50 mg/kg, po measured upto 48 hrs by LC-MS/MS analysis; type: ADME, organism-based; conditions: in vivo
[12] = Stability in simulated gastric fluid assessed as compound remaining at pH 1.2 measured upto 120 mins by LC-MS analysis; type: ADME; conditions: read-out: Stability
[13] = Stability in mouse plasma assessed as compound remaining at 10 uM measured upto 120 mins by LC-MS analysis; type: ADME, cell-free; conditions: read-out: Stability
[14] = test system: Mus musculus; test: Antiinflammatory activity in Swiss albino mouse assessed as inhibition of carrageenan-induced paw edema at 50 mg/kg,po pretreated for 1 hr followed by carrageenan administration measured after 6 hrs relative to control; type: functional; conditions: time 7 hrs
[15] = test system: Mus musculus; test: Antiinflammatory activity in Swiss albino mouse assessed as inhibition of carrageenan-induced paw edema at 25 mg/kg,po pretreated for 1 hr followed by carrageenan administration measured after 4 hrs relative to control; type: functional; conditions: time 5 hrs
[16] = Volume of distribution in fasted Swiss mouse at 50 mg/kg, po measured upto 48 hrs by LC-MS/MS analysis; type: ADME, organism-based; conditions: in vivo
[17] = Cmax in fasted Swiss mouse at 50 mg/kg, po measured upto 48 hrs by LC-MS/MS analysis; type: ADME, organism-based; set-up: time < 48 hrs, dose 50 mg/kg, route po; conditions: in vivo
[18] = Half life in fasted Swiss mouse at 50 mg/kg, po measured upto 48 hrs by LC-MS/MS analysis; type: ADME, organism-based; conditions: in vivo
[19] = test system: THP-1; test: Downregulation of LPS-induced ERK1/2 phosphorylation in human THP-1 cells at 10 uM incubated for 60 mins followed by LPS treatment 90 mins by […]; type: functional, cell-based; conditions: time 150.0 min
[20] = test system: Mus musculus; test: Antiinflammatory activity in Swiss albino mouse assessed as inhibition of carrageenan-induced paw edema at 25 mg/kg,po pretreated for 1 hr followed by carrageenan administration measured after 6 hrs relative to control; type: functional; conditions: time 7 hrs
[21] = test system: Mus musculus; test: Antiinflammatory activity in Swiss albino mouse assessed as inhibition of carrageenan-induced paw edema at 100 mg/kg,po pretreated for 1 hr followed by carrageenan administration measured after 6 hrs relative to control; type: functional; conditions: time 7 hrs
[22] = test system: Mus musculus; test: Antiinflammatory activity in Swiss albino mouse assessed as inhibition of carrageenan-induced paw edema at 50 mg/kg,po pretreated for 1 hr followed by carrageenan administration measured after 4 hrs relative to control; type: functional; conditions: time 5 hrs
[23] = AUC in fasted Swiss mouse at 50 mg/kg, po measured upto 48 hrs by LC-MS/MS analysis; type: ADME, organism-based; set-up: time < 48 hrs, dose 50 mg/kg, route po; conditions: in vivo
[24] = test system: THP-1; test: Downregulation of LPS-induced JNK1/2 phosphorylation in human THP-1 cells at 10 uM incubated for 60 mins followed by LPS treatment 90 mins by […]; type: functional, cell-based; conditions: time 150.0 min
[25] = Stability in simulated intestinal fluid assessed as compound remaining at pH 6.8 measured upto 120 mins by LC-MS analysis; type: ADME; conditions: read-out: Stability
[26] = Stability in simulated physiological fluid assessed as compound remaining at pH 7.4 measured upto 120 mins by LC-MS analysis; type: physicochemical; conditions: read-out: Stability

| Compound | IC50 [1] | Activity [2] | fold change (FC) [3] | Activity [4] | further results |
| --- | --- | --- | --- | --- | --- |
| Cc1ccc(-c2c(C(=O)Nc3ccccc3)c(C)n(CCC3=CC(=O)OC3O)c2-c2ccc(C)cc2)cc1 (configuration not stated) | > 5 µM |  |  |  |  |
| Cc1c(C(=O)Nc2ccccc2)c(-c2ccccc2)c(-c2ccc(Cl)cc2)n1CCC1=CC(=O)OC1O (configuration not stated) | 2.19 µM | Active | 10.4 | 35.92% |  |
| S=C(S)N1CCCC1 [PYRROLIDINE DITHIOCARBAMATE] |  |  |  |  | fold change (FC) [5]: 2.3 |
| CCc1ccc(-c2c(-c3ccccc3)c(C(=O)Nc3ccccc3)c(C)n2CC2=CC(=O)OC2O)cc1 (configuration not stated) | 1.21 µM | Active | 7 | 89.97% |  |
| Cc1c(C(=O)Nc2ccccc2)c(-c2ccccc2)c(-c2ccc(Cl)cc2)n1CC1=CC(=O)OC1O (configuration not stated) | 1.36 µM | Active | 12.1 | 88.38% |  |
| Cc1c(C(=O)Nc2ccccc2)c(-c2ccccc2)c(-c2ccc(F)cc2)n1CC1=CC(=O)OC1O (configuration not stated) | 2.66 µM | Active | 10.3 | 83.11% |  |
| Cc1c(C(=O)Nc2ccccc2)c(-c2ccc(F)cc2)c(-c2ccc(F)cc2)n1CCC1=CC(=O)OC1O (configuration not stated) | > 5 µM | Active | 9.7 | 12.55% |  |
| Cc1c(C(=O)Nc2ccccc2)c(-c2ccccc2)c(-c2ccccc2)n1CC1=CC(=O)OC1O (configuration not stated) | 1.42 µM | Active | 10.6 | 78.73% |  |
| CCN(CC)CCCC(C)Nc1ccnc2cc(Cl)ccc12 (configuration not stated) [CHLOROQUINE] |  |  |  |  | CC50 at 72 h [6]: 187 µM |
| O=C1OC(O)C(Cl)=C1Cl (configuration not stated) [MUCOCHLORIC ACID] | 4 µM |  |  |  | IC50 [7]: > 5 µM |
| Cc1c(C(=O)Nc2ccccc2)c(-c2ccc(Cl)cc2)c(-c2ccc(Cl)cc2)n1CCC1=CC(=O)OC1O (configuration not stated) | 1.47 µM | Active | 9.9 | 92.36% | MRT [8]: 61.2 min; inhibition in vivo at 100 mg/kg [9]: 73%; Tmax [10]: 15 min; CL/F [11]: 589 L/h/kg; remaining at 2 h [12]: 89.5%; remaining at 2 h, 10 µM [13]: 86.5%; inhibition in vivo at 50 mg/kg [14]: 56%; inhibition in vivo at 25 mg/kg [15]: 61%; Vd [16]: 754.5 L/kg; Cmax [17]: 110 ng/mL; half-life [18]: 52.2 min; Activity [19]: Active; inhibition in vivo at 25 mg/kg [20]: 56%; inhibition in vivo at 100 mg/kg [21]: 65%; inhibition in vivo at 50 mg/kg [22]: 62%; AUC at 48 h [23]: 86.9 ng·h/mL; Activity [24]: Active; remaining at 2 h [25]: 84.4%; remaining at 2 h [26]: 87.9% |
| O=C1C=C(O)CO1 | 4.88 µM |  |  |  | IC50 [7]: > 5 µM |
| Cc1ccc(-c2c(-c3ccccc3)c(C(=O)Nc3ccccc3)c(C)n2CC2=CC(=O)OC2O)cc1 (configuration not stated) | 1.31 µM | Active | 12.5 | 84% |  |
| CCc1ccc(-c2c(-c3ccccc3)c(C(=O)Nc3ccccc3)c(C)n2CCC2=CC(=O)OC2O)cc1 (configuration not stated) | 1.55 µM | Active | 7.8 | 89.93% |  |
